# Values joined by “and” are separate entries in the source; they are usually repeats but may differ in a detail not shown here. Identical values can stand only once. Toxic doses and inconclusive results are not listed.
# System: BDF1 mice, B16 melanoma ip, median survival T/C
# Test: NCI In Vivo Anticancer Drug Screen. Data for tumor model B16 Melanoma (intraperitoneal) in B6D2F1 (BDF1) mice
# Details: endpoint: median survival time, higher = longer survival
# Method in brief: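 Vehicle-treated animals serve as the reference (C); treated animals (T) are scored for survival or tumor size after tumor transplantation.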
compound,measurement,setting,value
COc1cccc2c1C(=O)c1c(O)c3c(c(O)c1C2=O)C[C@@](O)(C(=O)CO)C[C@@H]3OC1CC(N)C(O)C(C)O1 (some centres not stated),T/C,"dose: 0.12 mg/kg/injection, schedule: Q01DX009 (ip), vehicle: saline",163 % of control
same,T/C,"dose: 0.13 mg/kg/injection, schedule: Q01DX009 (ip), vehicle: water",202 % of control
same,T/C,"dose: 0.25 mg/kg/injection, schedule: Q01DX009 (ip), vehicle: water",181 % of control and 202 % of control and 266 % of control
same,T/C,"dose: 0.37 mg/kg/injection, schedule: Q01DX009 (ip), vehicle: saline",412 % of control
same,T/C,"dose: 0.37 mg/kg/injection, schedule: Q03HX008 (ip), vehicle: saline",154 % of control and 270 % of control
same,T/C,"dose: 0.47 mg/kg/injection, schedule: Q01DX001 (ip), vehicle: water",175 % of control
same,T/C,"dose: 0.5 mg/kg/injection, schedule: Q01DX009 (ip), vehicle: water",222 % of control and 260 % of control and 274 % of control
same,T/C,"dose: 0.5 mg/kg/injection, schedule: Q03HX008 (ip), vehicle: saline",194 % of control
same,T/C,"dose: 0.75 mg/kg/injection, schedule: Q01DX001 (ip), vehicle: saline",162 % of control
same,T/C,"dose: 0.75 mg/kg/injection, schedule: Q01DX001 (ip), vehicle: water",154 % of control
same,T/C,"dose: 0.75 mg/kg/injection, schedule: Q01DX009 (ip), vehicle: saline",154 % of control and 412 % of control
same,T/C,"dose: 0.75 mg/kg/injection, schedule: Q03DX001 (ip), vehicle: saline",168 % of control
same,T/C,"dose: 0.75 mg/kg/injection, schedule: Q03HX008 (ip), vehicle: saline",164 % of control and 412 % of control
same,T/C,"dose: 0.75 mg/kg/injection, schedule: Q04DX003 (ip), vehicle: saline",210 % of control
same,T/C,"dose: 0.94 mg/kg/injection, schedule: Q01DX001 (ip), vehicle: water",194 % of control and 197 % of control
same,T/C,"dose: 1.0 mg/kg/injection, schedule: Q01DX009 (ip), vehicle: water",260 % of control and 274 % of control and 339 % of control
same,T/C,"dose: 1.0 mg/kg/injection, schedule: Q03HX008 (ip), vehicle: saline",169 % of control
same,T/C,"dose: 1.25 mg/kg/injection, schedule: Q01DX001 (ip), vehicle: saline",210 % of control
same,T/C,"dose: 1.4 mg/kg/injection, schedule: Q04DX003 (ip), vehicle: saline",102 % of control
same,T/C,"dose: 1.44 mg/kg/injection, schedule: Q04DX003 (ip), vehicle: water",158 % of control and 295 % of control
same,T/C,"dose: 1.5 mg/kg/injection, schedule: Q01DX001 (ip), vehicle: saline",100 % of control and 114 % of control
same,T/C,"dose: 1.5 mg/kg/injection, schedule: Q01DX009 (ip), vehicle: saline",164 % of control and 412 % of control
same,T/C,"dose: 1.5 mg/kg/injection, schedule: Q03DX001 (ip), vehicle: saline",412 % of control
same,T/C,"dose: 1.5 mg/kg/injection, schedule: Q03HX008 (ip), vehicle: saline",206 % of control
same,T/C,"dose: 1.5 mg/kg/injection, schedule: Q04DX003 (ip), vehicle: saline",152 % of control and 412 % of control
same,T/C,"dose: 1.88 mg/kg/injection, schedule: Q01DX001 (ip), vehicle: water",241 % of control and 308 % of control
same,T/C,"dose: 1.9 mg/kg/injection, schedule: Q01DX001 (ip), vehicle: water",165 % of control
same,T/C,"dose: 2.0 mg/kg/injection, schedule: Q01DX009 (ip), vehicle: water",219 % of control and 275 % of control
same,T/C,"dose: 2.0 mg/kg/injection, schedule: Q03HX008 (ip), vehicle: saline",152 % of control
same,T/C,"dose: 2.4 mg/kg/injection, schedule: Q04DX003 (ip), vehicle: saline",105 % of control
same,T/C,"dose: 2.4 mg/kg/injection, schedule: Q04DX003 (ip), vehicle: water",155 % of control and 233 % of control
same,T/C,"dose: 3.0 mg/kg/injection, schedule: Q03DX001 (ip), vehicle: saline",177 % of control
same,T/C,"dose: 3.0 mg/kg/injection, schedule: Q04DX003 (ip), vehicle: saline",162 % of control and 412 % of control
same,T/C,"dose: 3.75 mg/kg/injection, schedule: Q01DX001 (ip), vehicle: water",214 % of control and 308 % of control
same,T/C,"dose: 3.8 mg/kg/injection, schedule: Q01DX001 (ip), vehicle: water",111 % of control
same,T/C,"dose: 4.0 mg/kg/injection, schedule: Q04DX003 (ip), vehicle: water",184 % of control and 202 % of control
same,T/C,"dose: 5.9 mg/kg/injection, schedule: Q04DX003 (ip), vehicle: saline",428 % of control
same,T/C,"dose: 6.0 mg/kg/injection, schedule: Q01DX001 (ip), vehicle: saline",308 % of control
same,T/C,"dose: 6.0 mg/kg/injection, schedule: Q03DX001 (ip), vehicle: saline",264 % of control
same,T/C,"dose: 6.0 mg/kg/injection, schedule: Q04DX003 (ip), vehicle: saline",189 % of control
same,T/C,"dose: 6.67 mg/kg/injection, schedule: Q04DX003 (ip), vehicle: saline",118 % of control
same,T/C,"dose: 6.67 mg/kg/injection, schedule: Q04DX003 (ip), vehicle: water",198 % of control and 321 % of control
same,T/C,"dose: 8.0 mg/kg/injection, schedule: Q04DX003 (ip), vehicle: saline",165 % of control and 180 % of control
same,T/C,"dose: 9.0 mg/kg/injection, schedule: Q04DX003 (ip), vehicle: saline",103 % of control
same,T/C,"dose: 12.0 mg/kg/injection, schedule: Q03DX001 (ip), vehicle: saline",100 % of control
same,T/C,"dose: 13.3 mg/kg/injection, schedule: Q01DX001 (ip), vehicle: saline",150 % of control and 155 % of control
same,T/C,"dose: 32.0 mg/kg/injection, schedule: Q01DX001 (ip), vehicle: saline",40 % of control
same,T/C,"dose: 32.0 mg/kg/injection, schedule: Q01DX001 (ip), vehicle: water",116 % of control
same,T/C,"dose: 64.0 mg/kg/injection, schedule: Q01DX001 (ip), vehicle: saline",25 % of control
same,T/C,"dose: 128.0 mg/kg/injection, schedule: Q01DX001 (ip), vehicle: saline",20 % of control
same,T/C,"dose: 125.0 micrograms/kg/injection, schedule: Q01DX009 (ip), vehicle: other",178 % of control
same,T/C,"dose: 250.0 micrograms/kg/injection, schedule: Q01DX009 (ip), vehicle: other",246 % of control
same,T/C,"dose: 500.0 micrograms/kg/injection, schedule: Q01DX009 (ip), vehicle: other",379 % of control
same,T/C,"dose: 518.0 micrograms/kg/injection, schedule: Q01DX004 (ip), vehicle: other",112 % of control
same,T/C,"dose: 864.0 micrograms/kg/injection, schedule: Q01DX004 (ip), vehicle: other",122 % of control
same,T/C,"dose: 1000.0 micrograms/kg/injection, schedule: Q01DX009 (ip), vehicle: other",380 % of control
same,T/C,"dose: 2000.0 micrograms/kg/injection, schedule: Q01DX009 (ip), vehicle: other",382 % of control
same,T/C,"dose: 4000.0 micrograms/kg/injection, schedule: Q01DX004 (ip), vehicle: other",100 % of control and 112 % of control
C=CCOCC(O)CO (configuration not stated),T/C,"dose: 100.0 mg/kg/injection, schedule: Q04DX003 (ip), vehicle: saline",109 % of control
same,T/C,"dose: 200.0 mg/kg/injection, schedule: Q04DX003 (ip), vehicle: saline",93 % of control
same,T/C,"dose: 400.0 mg/kg/injection, schedule: Q04DX003 (ip), vehicle: saline",102 % of control
O=C(OC1COC(n2c(=O)oc3ccc(F)cc32)C(OC(=O)c2ccccc2)C1OC(=O)c1ccccc1)c1ccccc1 (configuration not stated),T/C,"dose: 50.0 mg/kg/injection, schedule: Q01DX009 (ip), vehicle: saline with Tween-80",93 % of control
same,T/C,"dose: 100.0 mg/kg/injection, schedule: Q01DX009 (ip), vehicle: Klucel (hydroxypropylcellulose) (HPC)",89 % of control
same,T/C,"dose: 100.0 mg/kg/injection, schedule: Q01DX009 (ip), vehicle: saline with Tween-80",92 % of control
same,T/C,"dose: 200.0 mg/kg/injection, schedule: Q01DX009 (ip), vehicle: Klucel (hydroxypropylcellulose) (HPC)",86 % of control
same,T/C,"dose: 200.0 mg/kg/injection, schedule: Q01DX009 (ip), vehicle: saline with Tween-80",107 % of control
same,T/C,"dose: 400.0 mg/kg/injection, schedule: Q01DX009 (ip), vehicle: saline with Tween-80",90 % of control
NC1=NCN(C2OC(CO)C(O)C2O)C(=O)N1 (configuration not stated),T/C,"dose: 1.56 mg/kg/injection, schedule: Q01DX009 (ip), vehicle: saline",92 % of control and 110 % of control
same,T/C,"dose: 3.12 mg/kg/injection, schedule: Q01DX009 (ip), vehicle: saline",96 % of control
same,T/C,"dose: 3.12 mg/kg/injection, schedule: Q01DX009 (ip), vehicle: suspension in saline",93 % of control
same,T/C,"dose: 6.25 mg/kg/injection, schedule: Q01DX009 (ip), vehicle: saline",94 % of control and 110 % of control
same,T/C,"dose: 6.25 mg/kg/injection, schedule: Q01DX009 (ip), vehicle: suspension in saline",110 % of control
same,T/C,"dose: 12.5 mg/kg/injection, schedule: Q01DX009 (ip), vehicle: saline",110 % of control
same,T/C,"dose: 12.5 mg/kg/injection, schedule: Q01DX009 (ip), vehicle: suspension in saline",110 % of control
same,T/C,"dose: 25.0 mg/kg/injection, schedule: Q01DX009 (ip), vehicle: saline",94 % of control and 111 % of control
same,T/C,"dose: 25.0 mg/kg/injection, schedule: Q01DX009 (ip), vehicle: suspension in saline",89 % of control
same,T/C,"dose: 50.0 mg/kg/injection, schedule: Q01DX009 (ip), vehicle: saline",111 % of control
same,T/C,"dose: 200.0 mg/kg/injection, schedule: Q01DX009 (ip), vehicle: saline",111 % of control and 119 % of control
CN(C)C(=S)S/C=C\C(=O)O,T/C,"dose: 25.0 mg/kg/injection, schedule: Q04DX003 (ip), vehicle: Klucel (hydroxypropylcellulose) (HPC)",104 % of control
same,T/C,"dose: 50.0 mg/kg/injection, schedule: Q04DX003 (ip), vehicle: Klucel (hydroxypropylcellulose) (HPC)",96 % of control
same,T/C,"dose: 100.0 mg/kg/injection, schedule: Q04DX003 (ip), vehicle: Klucel (hydroxypropylcellulose) (HPC)",92 % of control
same,T/C,"dose: 200.0 mg/kg/injection, schedule: Q04DX003 (ip), vehicle: Klucel (hydroxypropylcellulose) (HPC)",113 % of control

# Reference: PubChem BioAssay AID192 (DTP/NCI, 2004)
